Source: article PMC7144155 (ACS Omega, 2020)
≈ marks a conversion by molar mass, not a printed value. Where “and” joins values, the source holds several entries; their conditions need not be identical. Identical values can stand only once.

Columns and labels:
traumatic brain injury = settings: after traumatic brain injury; cited from earlier work
[1] = molecular target: T1, human dopamine D4 receptor (hD4R) (Homo sapiens, UniProt P21917); assay: GPCR functional assay, antagonist effect; type: cell-based; settings: for inhibition at 50 µM: CHO
T1 sequence (P21917 1-419): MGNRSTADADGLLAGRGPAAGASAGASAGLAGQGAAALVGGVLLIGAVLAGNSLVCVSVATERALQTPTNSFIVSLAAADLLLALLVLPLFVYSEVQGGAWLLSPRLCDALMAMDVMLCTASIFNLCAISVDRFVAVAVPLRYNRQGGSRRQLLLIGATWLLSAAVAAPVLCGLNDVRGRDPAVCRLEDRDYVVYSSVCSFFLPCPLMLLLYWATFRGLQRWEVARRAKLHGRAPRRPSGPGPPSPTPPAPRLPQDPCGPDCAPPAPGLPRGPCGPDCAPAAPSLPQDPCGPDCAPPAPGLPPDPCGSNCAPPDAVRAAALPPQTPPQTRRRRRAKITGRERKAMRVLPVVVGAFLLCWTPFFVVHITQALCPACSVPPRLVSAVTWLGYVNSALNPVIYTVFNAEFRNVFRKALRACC

U87MG cells = settings: 20 and 40 μM; cited from earlier work
[2] = molecular target: T2, human dopamine D1 receptor (hD1R) (Homo sapiens, UniProt P21728); assay: GPCR functional assay, agonist effect; type: cell-based; settings: D1 (h); % of control agonist (dopamine) response at 50 μM of anthraquinones
[3] = molecular target: T3, human dopamine D3 receptor (hD3R) (Homo sapiens, UniProt P35462); assay: GPCR functional assay, agonist effect; type: cell-based; settings: for % stimulation: D3 (h), % of control response to 300 nM dopamine at 50 μM of anthraquinones
[4] = molecular target: T4, human 5-HT1A receptor (h5-HT1AR) (Homo sapiens, UniProt P08908); assay: GPCR functional assay, agonist effect; type: cell-based; settings: 5-HT1A (h); % of control response to serotonin (2.5 μM) at 50 μM of anthraquinones
T4 sequence (P08908 1-422): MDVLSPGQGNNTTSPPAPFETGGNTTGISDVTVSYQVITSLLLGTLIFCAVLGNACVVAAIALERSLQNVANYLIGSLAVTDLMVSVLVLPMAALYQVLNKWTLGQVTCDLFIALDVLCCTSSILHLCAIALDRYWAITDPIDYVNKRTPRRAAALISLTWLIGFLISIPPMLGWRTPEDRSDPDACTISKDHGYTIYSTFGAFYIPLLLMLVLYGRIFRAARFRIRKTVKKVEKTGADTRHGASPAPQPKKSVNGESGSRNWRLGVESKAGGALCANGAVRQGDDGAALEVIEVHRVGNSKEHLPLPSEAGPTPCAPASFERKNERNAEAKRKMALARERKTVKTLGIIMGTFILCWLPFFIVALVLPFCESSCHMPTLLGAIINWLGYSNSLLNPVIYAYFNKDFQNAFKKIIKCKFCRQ

[5] = molecular target: T1, human dopamine D4 receptor (hD4R); assay: GPCR functional assay, agonist effect; type: cell-based; settings: D4 (h); % of control agonist (dopamine) response at 50 μM of anthraquinones
[6] = tested on: human glioblastoma U87MG-implanted nude CG1 mice; settings: i.p. 50 mg/(kg day) for 15 days; decreasing Ki67 positive cells; cited from earlier work
[7] = molecular target: T5, human vasopressin V1A receptor (hV1AR) (Homo sapiens, UniProt P37288); assay: GPCR functional assay, agonist effect; type: cell-based; settings: for % stimulation: V1A (h), % of control response to 1 μM AVP at 50 μM of anthraquinones; for agonist response at hV1AR (in words): up to 50 μM
[8] = molecular target: T5, human vasopressin V1A receptor (hV1AR); assay: cell-based
[9] = molecular target: T3, human dopamine D3 receptor (hD3R); assay: GPCR functional assay, antagonist effect; type: cell-based; settings: for % inhibition: D3 (h), % inhibition of control response to 10 nM dopamine at 50 μM of anthraquinones
[10] = molecular target: T4, human 5-HT1A receptor (h5-HT1AR); assay: GPCR functional assay, antagonist effect; type: cell-based; settings: for % inhibition: 5-HT1A (h), % inhibition of control response to 30 nM serotonin at 50 μM of anthraquinones
[11] = molecular target: T2, human dopamine D1 receptor (hD1R); assay: GPCR functional assay, antagonist effect; type: cell-based; settings: CHO
acetylcholinesterase = settings: cited from earlier work
[12] = tested on: cycloheximide-induced amnesia in rats; settings: cited from earlier work
[13] = 20 and 40 mg/kg, rapid phase II metabolism to glucuronide; cited from earlier work
[14] = tested on: human epidermoid carcinoma A431 cell; settings: 100 μM, 4 nM (−)-epinephrine, 2 μM nicotinic acid, 8 μM histamine; cited from earlier work
[15] = tested on: cerebral ischemia/reperfusion (I/R) model rats; settings: intraperitoneal injection, 25 g/(kg day); cited from earlier work
[16] = tested on: formalin-injected paw model of pain; settings: coadministration 450 μg/paw; P < 0.001; cited from earlier work

T3 sequence (P35462 whole entry): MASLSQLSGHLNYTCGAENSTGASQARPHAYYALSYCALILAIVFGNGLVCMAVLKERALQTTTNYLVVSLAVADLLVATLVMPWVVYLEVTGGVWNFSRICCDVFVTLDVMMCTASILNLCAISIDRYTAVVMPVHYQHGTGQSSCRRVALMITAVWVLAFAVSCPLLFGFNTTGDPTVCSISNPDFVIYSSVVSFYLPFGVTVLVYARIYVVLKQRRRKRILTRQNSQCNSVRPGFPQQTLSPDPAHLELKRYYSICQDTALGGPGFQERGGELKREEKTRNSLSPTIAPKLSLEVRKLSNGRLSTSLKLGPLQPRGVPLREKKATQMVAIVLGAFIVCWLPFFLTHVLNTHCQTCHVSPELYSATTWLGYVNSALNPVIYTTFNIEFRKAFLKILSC
T2 sequence (P21728 whole entry): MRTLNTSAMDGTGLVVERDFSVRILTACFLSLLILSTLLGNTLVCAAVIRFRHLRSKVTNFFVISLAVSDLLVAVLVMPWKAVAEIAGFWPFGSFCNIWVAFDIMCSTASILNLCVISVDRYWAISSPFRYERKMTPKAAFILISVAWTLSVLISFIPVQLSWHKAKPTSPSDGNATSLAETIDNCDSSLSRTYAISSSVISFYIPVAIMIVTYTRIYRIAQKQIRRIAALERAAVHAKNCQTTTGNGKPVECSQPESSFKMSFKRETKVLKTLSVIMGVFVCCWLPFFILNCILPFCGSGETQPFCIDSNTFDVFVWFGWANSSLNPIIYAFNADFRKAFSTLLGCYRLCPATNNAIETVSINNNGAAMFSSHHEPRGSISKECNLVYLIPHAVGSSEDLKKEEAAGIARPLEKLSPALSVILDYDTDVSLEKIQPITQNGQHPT
T5 sequence (P37288 whole entry): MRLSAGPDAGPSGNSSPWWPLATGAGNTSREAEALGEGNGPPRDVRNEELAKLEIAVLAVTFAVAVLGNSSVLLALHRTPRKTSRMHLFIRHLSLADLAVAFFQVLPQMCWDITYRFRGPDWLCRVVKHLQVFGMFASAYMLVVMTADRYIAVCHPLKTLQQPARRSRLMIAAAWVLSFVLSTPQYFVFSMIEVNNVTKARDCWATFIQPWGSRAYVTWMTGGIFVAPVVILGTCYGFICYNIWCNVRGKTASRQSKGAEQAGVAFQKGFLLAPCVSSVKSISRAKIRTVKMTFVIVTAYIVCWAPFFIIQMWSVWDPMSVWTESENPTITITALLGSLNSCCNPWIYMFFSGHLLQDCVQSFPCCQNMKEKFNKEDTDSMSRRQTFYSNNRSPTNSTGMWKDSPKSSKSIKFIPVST

Row | inhibition at 50 µM [1] [%] | % stimulation [2] | % stimulation [3] | % stimulation [4] | % stimulation [5] | % stimulation [7] | agonist response at hV1AR (in words) [7] | % inhibition [9] [%] | antagonist effect on h5-HT1AR (in words) [10] | % inhibition [10] [%] | inhibition at 50 µM [11] [%] | SMILES | effect on hV1AR (in words) [8] | also measured
1 |  |  |  |  |  |  |  |  |  |  |  | COc1ccc(S(=O)(=O)N2c3ccc(Cl)cc3[C@](O)(c3ccccc3Cl)[C@@H]2C(=O)N2CCC[C@H]2C(N)=O)cc1OC [SR49059, (2S)1-{(2R,3S)-5-chloro-3-(2-chloro-phenyl)-1-(3,4-dimethoxybenzene-sulfonyl)-3-hydroxy-2,3-dihydro-1H-indole-2-carbonyl}pyrrolidine-2-carboxamide] |  | brain edema (traumatic brain injury): prevented brain edema
2 | -0.35 | –3.55 ± 0.64% | 75.6% and 75.60 ± 12.87% | –3.56 ± 0.21% | 2.35 ± 2.76% | –4.80 ± 0.69% | did not show any agonist response | −10.8 ± 6.59 | remained ineffective | 18.4 ± 3.89 | -10.2 | Cc1cc(O)c2c(c1)C(=O)c1cc(O)cc(O)c1C2=O [emodin] |  | cycloheximide-induced amnesia [12]: improved cycloheximide-induced amnesia; EC50 [3]: 21.9 ± 2.66 µM; IC50 [8]: 10.2 ± 1.97 µM; inhibition at 12.5 µM ([8]; CHO, read-out: inhibition of 10 nM AVP-induced intracellular Ca2+ concentration): > 50%; % inhibition ([8]; V1A (h), % inhibition of control response to 10 nM AVP at 50 μM of anthraquinones): 69.35 ± 1.34%; parent form in vivo after oral administration [13]: almost undetectable; effect on agonist-induced dynamic mass redistribution signals [14]: inhibited; neurological deficit scores [15]: improved neurological deficit scores
3 |  |  |  |  |  |  |  |  |  |  |  | COc1ccccc1N1CCN(CC(C(=O)NC(C)(C)C)c2ccccc2)CC1 (stereo not drawn) [WAY 100 135] |  | phase 2 (long lasting) intense flinching behavior [16]: inhibited
4 | 4.5 | –2.10 ± 0.85% | 34.85% and 34.85 ± 0.78% | 2.45 ± 0.49% | –38.15 ± 15.91% | –3.40 ± 0.71% | did not show any agonist response | 1.25 ± 7.42 | remained ineffective | 0.70 ± 4.10 | 10.9 | COc1cc(O)cc2c1C(=O)c1c(O)cc(C)cc1C2=O [questin] | did not have any observable effect | hD3R agonist effect (in words) [3]: moderate hD3R agonist effect

Row | SMILES | inhibition at 50 µM [1] [%] | % stimulation [2] | % stimulation [3] | % stimulation [4] | % stimulation [5] | % stimulation [7] | agonist response at hV1AR (in words) [7] | % inhibition [9] [%] | antagonist effect on h5-HT1AR (in words) [10] | % inhibition [10] [%] | inhibition at 50 µM [11] [%] | effect on hV1AR (in words) [8] | also measured
5 | O=C1c2cccc(O)c2C(=O)c2c(O)cc(CO)cc21 [aloe-emodin] | 25.7 | 0.15 ± 4.45% | –57.95 ± 32.88% | 3.45 ± 0.21% | -53.15 ± 7.00% | 7.45 ± 1.20% | did not show any agonist response | 20.60 ± 6.79 | remained ineffective | 1.55 ± 3.61 | -47.9 | did not have any observable effect | hD4R antagonist effect (in words) [1]: mild antagonist effect; cell cycle effect (U87MG cells): induced cell cycle arrest; effect in mouse brain tumour model [6]: showed antiproliferative effect; hD3R antagonist effect (in words) [9]: mild hD3R antagonist effect; IC50 (acetylcholinesterase activity) (acetylcholinesterase): 18.37 µg/mL (≈ 68 µM)
